Key:
Experiment in all cases: relative viability (nuclei count vs DMSO), 5 days (fraction); higher = more cells survive
A-427 = system: A-427
Procedure, shortened: (§1)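 A single step with final 0.05% Triton X-100, 1% formaldehyde and 1 ug/ml Hoechst fixed the cells and stained nuclei 5 days after treatment. Lung cancer cell lines in 1536-well plates had been treated by pin tool the day after seeding with one drug alone or a fixed anchor-drug dose plus five library-drug doses (not always all listed) in √10 steps, and nuclei were counted on 4× images. Relative viability is the ratio of nuclei in treated wells to nuclei in vehicle wells, taken as the median of duplicate plates.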

COR-L 105 = system: COR-L 105
Procedure, shortened: as §1

EPLC-272H = system: EPLC-272H
Procedure, shortened: as §1

HCC-366 = system: HCC-366
Procedure, shortened: as §1

HCC-78 = system: HCC-78
Procedure, shortened: as §1

HOP-62 = system: HOP-62
Procedure, shortened: as §1

LC-2-ad = system: LC-2-ad
Procedure, shortened: as §1

LCLC-97TM1 = system: LCLC-97TM1
Procedure, shortened: as §1

LU99A = system: LU99A
Procedure, shortened: as §1

LXF-289 = system: LXF-289
Procedure, shortened: as §1

NCI-H1755 = system: NCI-H1755
Procedure, shortened: as §1

NCI-H1792 = system: NCI-H1792
Procedure, shortened: as §1

NCI-H1793 = system: NCI-H1793
Procedure, shortened: as §1

NCI-H1915 = system: NCI-H1915
Procedure, shortened: as §1

NCI-H1944 = system: NCI-H1944
Procedure, shortened: as §1

NCI-H1975 = system: NCI-H1975
Procedure, shortened: as §1

NCI-H2085 = system: NCI-H2085
Procedure, shortened: as §1

NCI-H2170 = system: NCI-H2170
Procedure, shortened: as §1

NCI-H358 = system: NCI-H358
Procedure, shortened: as §1

NCI-H460 = system: NCI-H460
Procedure, shortened: as §1

SK-LU-1 = system: SK-LU-1
Procedure, shortened: as §1

SW 900 = system: SW 900
Procedure, shortened: as §1

UMC-11 = system: UMC-11
Procedure, shortened: as §1

Question: What does the source list for `NC(=O)Nc1cc(-c2cccc(F)c2)sc1C(=O)N[C@H]1CCCNC1` [AZD7762] + CC(=O)Nc1cccc(-n2c(=O)n(C3CC3)c(=O)c3c(Nc4ccc(I)cc4F)n(C)c(=O)c(C)c32)c1 [Trametinib] (partner 0.02 µM)?
Answer: relative viability (A-427; first compound 0.01 µM): 0.82; relative viability (A-427; first compound 0.03162 µM): 0.849; relative viability (A-427; first compound 0.1 µM): 0.772; relative viability (A-427; first compound 0.3162 µM): 0.655; relative viability (A-427; first compound 1 µM): 0.331; relative viability (COR-L 105; first compound 0.01 µM): 0.435; relative viability (COR-L 105; first compound 0.03162 µM): 0.462; relative viability (COR-L 105; first compound 0.1 µM): 0.416; relative viability (COR-L 105; first compound 0.3162 µM): 0.444; relative viability (COR-L 105; first compound 1 µM): 0.43; relative viability (EPLC-272H; first compound 0.01 µM): 0.28; relative viability (EPLC-272H; first compound 0.03162 µM): 0.297; relative viability (EPLC-272H; first compound 0.1 µM): 0.277; relative viability (EPLC-272H; first compound 0.3162 µM): 0.293; relative viability (EPLC-272H; first compound 1 µM): 0.227; relative viability (HCC-366; first compound 0.01 µM): 0.358; relative viability (HCC-366; first compound 0.03162 µM): 0.329; relative viability (HCC-366; first compound 0.1 µM): 0.363; relative viability (HCC-366; first compound 0.3162 µM): 0.325; relative viability (HCC-366; first compound 1 µM): 0.13; relative viability (HCC-78; first compound 0.01 µM): 0.937; relative viability (HCC-78; first compound 0.03162 µM): 0.864; relative viability (HCC-78; first compound 0.1 µM): 0.828; relative viability (HCC-78; first compound 0.3162 µM): 0.969; relative viability (HCC-78; first compound 1 µM): 0.416; relative viability (HOP-62; first compound 0.01 µM): 0.363; relative viability (HOP-62; first compound 0.03162 µM): 0.367; relative viability (HOP-62; first compound 0.1 µM): 0.407; relative viability (HOP-62; first compound 0.3162 µM): 0.37; relative viability (HOP-62; first compound 1 µM): 0.343; relative viability (LC-2-ad; first compound 0.01 µM): 0.914; relative viability (LC-2-ad; first compound 0.03162 µM): 0.9; relative viability (LC-2-ad; first compound 0.1 µM): 0.906; relative viability (LC-2-ad; first compound 0.3162 µM): 0.647; relative viability (LC-2-ad; first compound 1 µM): 0.544; relative viability (LCLC-97TM1; first compound 0.01 µM): 0.199; relative viability (LCLC-97TM1; first compound 0.03162 µM): 0.214; relative viability (LCLC-97TM1; first compound 0.1 µM): 0.185; relative viability (LCLC-97TM1; first compound 0.3162 µM): 0.202; relative viability (LCLC-97TM1; first compound 1 µM): 0.182; relative viability (LU99A; first compound 0.01 µM): 0.595; relative viability (LU99A; first compound 0.03162 µM): 0.522; relative viability (LU99A; first compound 0.1 µM): 0.523; relative viability (LU99A; first compound 0.3162 µM): 0.586; relative viability (LU99A; first compound 1 µM): 0.43; relative viability (LXF-289; first compound 0.01 µM): 0.618; relative viability (LXF-289; first compound 0.03162 µM): 0.699; relative viability (LXF-289; first compound 0.1 µM): 0.692; relative viability (LXF-289; first compound 0.3162 µM): 0.458; relative viability (LXF-289; first compound 1 µM): 0.68; relative viability (NCI-H1755; first compound 0.01 µM): 0.788; relative viability (NCI-H1755; first compound 0.03162 µM): 0.823; relative viability (NCI-H1755; first compound 0.1 µM): 0.76; relative viability (NCI-H1755; first compound 0.3162 µM): 0.694; relative viability (NCI-H1755; first compound 1 µM): 0.635; relative viability (NCI-H1792; first compound 0.01 µM): 0.406; relative viability (NCI-H1792; first compound 0.03162 µM): 0.355; relative viability (NCI-H1792; first compound 0.1 µM): 0.589; relative viability (NCI-H1792; first compound 0.3162 µM): 0.411; relative viability (NCI-H1792; first compound 1 µM): 0.527; relative viability (NCI-H1793; first compound 0.01 µM): 0.469; relative viability (NCI-H1793; first compound 0.03162 µM): 0.485; relative viability (NCI-H1793; first compound 0.1 µM): 0.456; relative viability (NCI-H1793; first compound 0.3162 µM): 0.446; relative viability (NCI-H1793; first compound 1 µM): 0.381; relative viability (NCI-H1915; first compound 0.01 µM): 0.342; relative viability (NCI-H1915; first compound 0.03162 µM): 0.332; relative viability (NCI-H1915; first compound 0.1 µM): 0.305; relative viability (NCI-H1915; first compound 0.3162 µM): 0.362; relative viability (NCI-H1915; first compound 1 µM): 0.271; relative viability (NCI-H1944; first compound 0.01 µM): 0.443; relative viability (NCI-H1944; first compound 0.03162 µM): 0.493; relative viability (NCI-H1944; first compound 0.1 µM): 0.473; relative viability (NCI-H1944; first compound 0.3162 µM): 0.523; relative viability (NCI-H1944; first compound 1 µM): 0.496; relative viability (NCI-H1975; first compound 0.01 µM): 0.341; relative viability (NCI-H1975; first compound 0.03162 µM): 0.377; relative viability (NCI-H1975; first compound 0.1 µM): 0.331; relative viability (NCI-H1975; first compound 0.3162 µM): 0.345; relative viability (NCI-H1975; first compound 1 µM): 0.24; relative viability (NCI-H2085; first compound 0.01 µM): 0.514; relative viability (NCI-H2085; first compound 0.03162 µM): 0.559; relative viability (NCI-H2085; first compound 0.1 µM): 0.632; relative viability (NCI-H2085; first compound 0.3162 µM): 0.713; relative viability (NCI-H2085; first compound 1 µM): 0.357; relative viability (NCI-H2170; first compound 0.01 µM): 0.935; relative viability (NCI-H2170; first compound 0.03162 µM): 0.939; relative viability (NCI-H2170; first compound 0.1 µM): 0.945; relative viability (NCI-H2170; first compound 0.3162 µM): 0.951; relative viability (NCI-H2170; first compound 1 µM): 0.914; relative viability (NCI-H358; first compound 0.01 µM): 0.136; relative viability (NCI-H358; first compound 0.03162 µM): 0.135; relative viability (NCI-H358; first compound 0.1 µM): 0.148; relative viability (NCI-H358; first compound 0.3162 µM): 0.145; relative viability (NCI-H358; first compound 1 µM): 0.1; relative viability (NCI-H460; first compound 0.01 µM): 0.327; relative viability (NCI-H460; first compound 0.03162 µM): 0.179; relative viability (NCI-H460; first compound 0.1 µM): 0.226; relative viability (NCI-H460; first compound 0.3162 µM): 0.171; relative viability (NCI-H460; first compound 1 µM): 0.0341; relative viability (SK-LU-1; first compound 0.01 µM): 0.553; relative viability (SK-LU-1; first compound 0.03162 µM): 0.609; relative viability (SK-LU-1; first compound 0.1 µM): 0.393; relative viability (SK-LU-1; first compound 0.3162 µM): 0.188; relative viability (SK-LU-1; first compound 1 µM): 0.24; relative viability (SW 900; first compound 0.01 µM): 0.799; relative viability (SW 900; first compound 0.03162 µM): 0.794; relative viability (SW 900; first compound 0.1 µM): 0.721; relative viability (SW 900; first compound 0.3162 µM): 0.862; relative viability (SW 900; first compound 1 µM): 0.495; relative viability (UMC-11; first compound 0.01 µM): 0.678; relative viability (UMC-11; first compound 0.03162 µM): 0.696; relative viability (UMC-11; first compound 0.1 µM): 0.656; relative viability (UMC-11; first compound 0.3162 µM): 0.665; relative viability (UMC-11; first compound 1 µM): 0.33
